Reference: BindingDB's records for patent US11021481 (Nimbus Saturn, 2021)

molecular target: Mitogen-activated protein kinase kinase kinase kinase 1 (Homo sapiens, UniProt Q92918); assay: Biochemical Enzyme Assay
Experimental: HPK1 biochemical enzyme assay: HPK1 enzyme inhibition was measured using a microfluidic mobility shift assay. […] Test compounds were titrated in ten point curves (top final assay concentration 3 μM), and preincubated with enzyme/substrate mix for 30 min prior to initiation of the reaction by addition of ATP (1 mM final concentration) and substrate (1 μM final concentration; Carna Biosciences) diluted in assay buffer supplemented by MgCl2 (final assay concentration of 5 mM). Following 60 min incubation at RT, the reaction was terminated by addition of 60 µl/well termination buffer (Carna Biosciences) and signal determination using aCaliper EZ Reader (Perkin Elmer, UK).

Chain of Mitogen-activated protein kinase kinase kinase kinase 1 (Q92918 whole entry): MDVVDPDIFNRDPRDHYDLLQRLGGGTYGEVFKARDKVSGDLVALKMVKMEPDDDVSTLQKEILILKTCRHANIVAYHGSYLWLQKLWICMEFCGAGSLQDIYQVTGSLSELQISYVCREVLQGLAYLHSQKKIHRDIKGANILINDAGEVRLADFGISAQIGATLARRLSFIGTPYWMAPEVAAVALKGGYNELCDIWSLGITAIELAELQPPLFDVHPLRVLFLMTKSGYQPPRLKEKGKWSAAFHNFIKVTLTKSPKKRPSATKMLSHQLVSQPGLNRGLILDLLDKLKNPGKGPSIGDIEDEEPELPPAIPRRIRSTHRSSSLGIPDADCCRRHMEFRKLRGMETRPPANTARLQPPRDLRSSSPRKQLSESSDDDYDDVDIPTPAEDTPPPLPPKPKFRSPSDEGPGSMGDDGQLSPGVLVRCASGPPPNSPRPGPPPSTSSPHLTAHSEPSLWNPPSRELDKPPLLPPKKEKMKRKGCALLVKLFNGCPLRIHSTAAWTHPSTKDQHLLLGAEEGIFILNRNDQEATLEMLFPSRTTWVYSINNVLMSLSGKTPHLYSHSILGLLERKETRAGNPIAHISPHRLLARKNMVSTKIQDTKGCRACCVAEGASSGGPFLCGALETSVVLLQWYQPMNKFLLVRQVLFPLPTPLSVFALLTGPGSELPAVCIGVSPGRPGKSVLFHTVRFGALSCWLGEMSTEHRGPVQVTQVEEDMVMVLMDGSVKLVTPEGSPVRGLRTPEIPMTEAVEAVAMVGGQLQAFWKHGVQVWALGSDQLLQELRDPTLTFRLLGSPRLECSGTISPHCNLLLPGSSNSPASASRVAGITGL

Row | Compound | IC50
1 | Cn1ccc2c1N=CNC2c1ccc(Nc2ccc(N3CCC(O)CC3)cn2)c2c1CNC2=O (stereo not given) [US11021481, Compound I-144] | < 100 nM
2 | O=C1NCc2c(-c3cnc4ccccn34)ccc(Cc3ccn(C4CCOCC4)n3)c21 [US11021481, Compound I-382] | > 1000 nM
3 | CC(C)(O)[C@@H]1CN(c2ccc(Nc3ccc(-c4cnc5c(C(F)F)cccn45)c4c3C(=O)NC4)nc2)CCO1 [US11021481, Compound I-475] | < 100 nM
4 | Cc1ccn2c(-c3ncc(Nc4cccc(C5CC[C@@H]6CNC[C@H]56)n4)c4c3CNC4=O)cnc2c1F (stereo not given in full) [US11021481, Compound I-480] | in the range around 550 nM
5 | Cc1ccn2c(-c3ncc(Nc4cccc(C5CCC6CNCC65)n4)c4c3CNC4=O)cnc2c1F (stereo not given) [US11021481, Compound I-481] | < 100 nM
6 | Cc1ccnn2c(-c3ncc(Nc4ccc(C5CCOC5)c(CN(C)C)n4)c4c3CNC4=O)cnc12 (stereo not given) [US11021481, Compound I-539] | < 100 nM
7 | CN1CC(O)(C2CCCN(c3ccc(Nc4ccc(C5=CNC6C=C(F)C=CN56)c5c4C(=O)NC5)nc3)C2)C1 (stereo not given) [US11021481, Compound I-599] | < 100 nM
8 | CN1CCN(c2nc(Nc3ccc(-c4cnc5cc(F)ccn45)c4c3C(=O)NC4)cnc2[C@H]2CCOC2)CC1 [US11021481, Compound I-801] | < 100 nM
9 | CN1CCN(c2nc(Nc3ccc(-c4cnc5cc(F)ccn45)c4c3C(=O)NC4)cnc2[C@@H]2CCOC2)CC1 [US11021481, Compound I-802] | < 100 nM

Continued, values first:

Row | IC50 | Compound
10 | < 100 nM | CNC1CN(c2cccc(Nc3cnc(-c4ccnc5c4ccn5C)c4c3C(=O)NC4)c2)C1 [US11021481, Compound I-449]
11 | < 100 nM | C[C@@H]1CN(c2c(CN(C)C)cc(Nc3ccc(-c4cnc5cc(F)ccn45)c4c3C(=O)NC4)nc2CN(C)C)CCO1 [US11021481, Compound I-541]
12 | < 100 nM | Cn1ccc2c(-c3ncc(Nc4ccc(C5CCOC5)c(CN5CCCC5)n4)c4c3CNC4=O)cccc21 (stereo not given) [US11021481, Compound I-552]
13 | < 100 nM | Cc1ccn2c(-c3ccc(Nc4ccc(C5CCOC5)c(CN(C)C)n4)c4c3CNC4=O)cnc2c1 (stereo not given) [US11021481, Compound I-561]
14 | < 100 nM | CN(C)Cc1nc(Nc2cnc(-c3cccc4c3ccn4C)c3c2C(=O)NC3)ccc1O[C@@H]1CCOC1 [US11021481, Compound I-805]
15 | < 100 nM | COCC1(O)CCN(c2ccc(Nc3ccc(-c4ccnc5c4ccn5C)c4c3C(=O)NC4)nc2CN(C)C)CC1 [US11021481, Compound I-851]
